For orientation: IC50 means the midpoint of a concentration-inhibition curve.

For this assay, the target named is T1, GST-RIPK1 (recombinant GST-RIPK1 kinase domain (residues 1-327)) (Homo sapiens, UniProt Q13546).
T1 construct: recombinant GST-RIPK1 kinase domain (residues 1-327) enzyme; made in house; host or cells: baculovirus-transfected Sf21 insect cells
T1 sequence (Q13546 1-327): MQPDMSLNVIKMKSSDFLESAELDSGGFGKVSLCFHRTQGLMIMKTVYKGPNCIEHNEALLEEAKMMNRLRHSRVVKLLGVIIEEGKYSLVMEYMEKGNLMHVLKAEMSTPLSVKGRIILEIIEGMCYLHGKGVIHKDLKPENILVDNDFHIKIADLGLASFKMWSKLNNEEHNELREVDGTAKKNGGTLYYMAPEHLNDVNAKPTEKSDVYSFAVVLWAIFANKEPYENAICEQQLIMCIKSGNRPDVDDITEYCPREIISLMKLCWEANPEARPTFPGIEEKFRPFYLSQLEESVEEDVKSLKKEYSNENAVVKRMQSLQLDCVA
As to the kind of experiment: RIPK1-ADP-Glo enzymatic assay. Format: biochemical. As to conditions: 25 nM GST-RIPK1, 300 μM ATP, 3 μM dephosphorylated-MBP; 30 minutes pre-incubation, 150 minutes reaction; ten-point titration. Put shortly:
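Ten-point 1:3 titrations from 100000 nM, 1% DMSO, were preincubated 30 min with 25 nM GST-RIPK1 (1-327) before starting with 300 μM ATP plus 3 μM dephosphorylated MBP; 150 min reaction. ADP-Glo luminescence measured ATP-to-ADP conversion; EC50 by four-parameter sigmoidal regression.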
(ADP-Glo first removes unused ATP, then detects ADP through luciferase.)
For the molecule `CC1(C(=O)N2C[C@@H]3C[C@H]2c2cncc(C#N)c2O3)CC1` [Compound 1-76, (2S,5S)-4-(1-methylcyclopropane-1-carbonyl)-2,3,4,5-tetrahydro-2,5-methanopyrido[3,4-f][1,4]oxazepine-9-carbonitrile], the IC50 worked out at 780 nM. With `CC1(C(=O)N2C[C@@H]3C[C@H]2c2cncc(C#N)c2O3)CC(F)(F)C1` [Compound 1-77, (2S,5S)-4-(3,3-difluoro-1-methylcyclobutane-1-carbonyl)-2,3,4,5-tetrahydro-2,5-methanopyrido[3,4-f][1,4]oxazepine-9-carbonitrile] the figure was 139 nM; with `N#Cc1cncc2c1O[C@H]1C[C@@H]2N(C(=O)C23CCCCC2C3)C1` (stereo partly drawn) [Compound 1-78, (2S,5S)-4-(bicyclo[4.1.0]heptane-1-carbonyl)-2,3,4,5-tetrahydro-2,5-methanopyrido[3,4-f][1,4]oxazepine-9-carbonitrile], 77 nM; with `CC(C)C1(C(=O)N2C[C@@H]3C[C@H]2c2cncc(C#N)c2O3)CC1` [Compound 1-79, (2S,5S)-4-(1-isopropylcyclopropane-1-carbonyl)-2,3,4,5-tetrahydro-2,5-methanopyrido[3,4-f][1,4]oxazepine-9-carbonitrile], 446 nM. With `COc1cnc(N2CCC(F)(C(=O)N3C[C@@H]4C[C@H]3c3cncc(C#N)c3O4)CC2)nc1` [Compound 1-80, (2S,5S)-4-(4-fluoro-1-(5-methoxypyrimidin-2-yl)piperidine-4-carbonyl)-2,3,4,5-tetrahydro-2,5-methanopyrido[3,4-f][1,4]oxazepine-9-carbonitrile] the figure was 332 nM; with `N#Cc1cncc2c1O[C@H]1C[C@@H]2N(C(=O)C23CCCC2C3(F)F)C1` (stereo partly drawn) [Compound 1-81, (2S,5S)-4-(6,6-difluorobicyclo[3.1.0]hexane-1-carbonyl)-2,3,4,5-tetrahydro-2,5-methanopyrido[3,4-f][1,4]oxazepine-9-carbonitrile], 93 nM. Then `Cc1ncc2c(c1C#N)O[C@H]1C[C@@H]2N(C(=O)C23CCC(C(F)(F)F)(CC2)C3)C1` [Compound 1-82, (2S,5S)-8-methyl-4-(4-(trifluoromethyl)bicyclo[2.2.1]heptane-1-carbonyl)-2,3,4,5-tetrahydro-2,5-methanopyrido[3,4-f](1,4]oxazepine-9-carbonitrile], with 13 nM. Turning to `N#Cc1ccnc(N2CCC(F)(C(=O)N3C[C@@H]4C[C@H]3c3cncc(C#N)c3O4)CC2)n1` [Compound 1-83, (2S,5S)-4-(1-(4-cyanopyrimidin-2-yl)-4-fluoropiperidine-4-carbonyl)-2,3,4,5-tetrahydro-2,5-methanopyrido[3,4-f][1,4]oxazepine-9-carbonitrile], the IC50 was 30 nM. Then `CN(C)C(C)(C)C(=O)N1C[C@@H]2C[C@H]1c1cncc(C#N)c1O2` [Compound 1-90, (2S,5S)-4-(2-(dimethylamino)-2-methylpropanoyl)-2,3,4,5-tetrahydro-2,5-methanopyrido[3,4-f][1,4]oxazepine-9-carbonitrile], with 85 nM. With `CN(C)C1(C(=O)N2C[C@@H]3C[C@H]2c2cncc(C#N)c2O3)CCC1` [Compound 1-91, (2S,5S)-4-(1-(dimethylamino)cyclobutane-1-carbonyl)-2,3,4,5-tetrahydro-2,5-methanopyrido[3,4-f][1,4]oxazepine-9-carbonitrile] the figure was 64 nM; with `N#Cc1cncc2c1O[C@H]1C[C@@H]2N(C(=O)C23CC(F)(C2)C3)C1` [Compound 1-92, (2S,5S)-4-(3-fluorobicyclo[1.1.1]pentane-1-carbonyl)-2,3,4,5-tetrahydro-2,5-methanopyrido[3,4-f][1,4]oxazepine-9-carbonitrile], 84 nM; with `N#Cc1cncc2c1O[C@H]1C[C@@H]2N(C(=O)C23CC(Cl)(C2)C3)C1` [Compound 1-93, (2S,5S)-4-(3-chlorobicyclo[1.1.1]pentane-1-carbonyl)-2,3,4,5-tetrahydro-2,5-methanopyrido[3,4-f][1,4]oxazepine-9-carbonitrile], 88 nM. With `CC12CCC(C(=O)N3C[C@@H]4C[C@H]3c3cncc(C#N)c3O4)(CC1)C2` [Compound 1-94, (2S,5S)-4-(4-methylbicyclo[2.2.1]heptane-1-carbonyl)-2,3,4,5-tetrahydro-2,5-methanopyrido[3,4-f][1,4]oxazepine-9-carbonitrile] the figure was 15 nM.

With `C=CC(C)(C)C(=O)N1C[C@@H]2C[C@H]1c1cncc(C#N)c1O2` [Compound 1-95, (2S,5S)-4-(2,2-dimethylbut-3-enoyl)-2,3,4,5-tetrahydro-2,5-methanopyrido[3,4-f][1,4]oxazepine-9-carbonitrile], the IC50 came to 30 nM. Consider `C#CC(C)(C)C(=O)N1C[C@@H]2C[C@H]1c1cncc(C#N)c1O2` [Compound 1-96, (2S,5S)-4-(2,2-dimethylbut-3-ynoyl)-2,3,4,5-tetrahydro-2,5-methanopyrido[3,4-f][1,4]oxazepine-9-carbonitrile], for which the IC50 amounted to 148 nM.

For `COC12CCC(C(=O)N3C[C@@H]4C[C@H]3c3cncc(C#N)c3O4)(CC1)C2` [Compound 1-97, (2S,5S)-4-(4-methoxybicyclo[2.2.1]heptane-1-carbonyl)-2,3,4,5-tetrahydro-2,5-methanopyrido[3,4-f][1,4]oxazepine-9-carbonitrile], the IC50 amounted to 92 nM. Then `CCC12CC(C(=O)N3C[C@@H]4C[C@H]3c3cncc(C#N)c3O4)(C1)C2` [Compound 1-98, (2S,5S)-4-(3-ethylbicyclo[1.1.1]pentane-1-carbonyl)-2,3,4,5-tetrahydro-2,5-methanopyrido[3,4-f][1,4]oxazepine-9-carbonitrile], with 57 nM; and `CC(C)C12CC(C(=O)N3C[C@@H]4C[C@H]3c3cncc(C#N)c3O4)(C1)C2` [Compound 1-99, (2S,5S)-4-(3-isopropylbicyclo[1.1.1]pentane-1-carbonyl)-2,3,4,5-tetrahydro-2,5-methanopyrido[3,4-f][1,4]oxazepine-9-carbonitrile], with 48 nM; and `N#Cc1cncc2c1O[C@H]1C[C@@H]2N(C(=O)C23CCC(C#N)(C2)C3)C1` [Compound 1-100, (2S,5S)-4-(4-cyanobicyclo[2.1.1]hexane-1-carbonyl)-2,3,4,5-tetrahydro-2,5-methanopyrido[3,4-f][1,4]oxazepine-9-carbonitrile], with 28 nM. Regarding `N#Cc1cncc2c1O[C@H]1C[C@@H]2N(C(=O)[C@H]2C[C@@H](Oc3ccc(F)cc3F)C2)C1` [Compound 1-101], the IC50 is 132 nM.

On to `N#Cc1cncc2c1O[C@H]1C[C@@H]2N(C(=O)[C@H]2C[C@H](Oc3ccc(F)cc3F)C2)C1` [Compound 1-102], for which the IC50 came to 76 nM.

Consider `CC(C)(OC(F)(F)F)C(=O)N1C[C@@H]2C[C@H]1c1cncc(C#N)c1O2` [Compound 1-103, (2S,5S)-4-(2-methyl-2-(trifluoromethoxy)propanoyl)-2,3,4,5-tetrahydro-2,5-methanopyrido[3,4-f][1,4]oxazepine-9-carbonitrile], for which the IC50 was found to be 163 nM. With `CC12CC(C(=O)N3C[C@@H]4C[C@H]3c3cncc(C#N)c3O4)(C1)C2` [Compound 1-104, (2S,5S)-4-(3-methylbicyclo[1.1.1]pentane-1-carbonyl)-2,3,4,5-tetrahydro-2,5-methanopyrido[3,4-f][1,4]oxazepine-9-carbonitrile] the figure was 203 nM; with `CCCC12CC(C(=O)N3C[C@@H]4C[C@H]3c3cncc(C#N)c3O4)(C1)C2` [Compound 1-105, (2S,5S)-4-(3-propylbicyclo[1.1.1]pentane-1-carbonyl)-2,3,4,5-tetrahydro-2,5-methanopyrido[3,4-f][1,4]oxazepine-9-carbonitrile], 92 nM; with `N#Cc1cncc2c1O[C@H]1C[C@@H]2N(C(=O)C23CCC(CO2)C3)C1` [Compound 1-108, (2S,5S)-4-(2-oxabicyclo[2.2.1]heptane-1-carbonyl)-2,3,4,5-tetrahydro-2,5-methanopyrido[3,4-f][1,4]oxazepine-9-carbonitrile], 269 nM. Then `CN1CC2CC1(C(=O)N1C[C@@H]3C[C@H]1c1cncc(C#N)c1O3)C2` [Compound 1-109, (2S,5S)-4-(2-methyl-2-azabicyclo[2.1.1]hexane-1-carbonyl)-2,3,4,5-tetrahydro-2,5-methanopyrido[3,4-f][1,4]oxazepine-9-carbonitrile], with 241 nM; and `N#Cc1cncc2c1O[C@H]1C[C@@H]2N(C(=O)C2(C#N)CCC2)C1` [Compound 1-110, (2S,5S)-4-(1-cyanocyclobutane-1-carbonyl)-2,3,4,5-tetrahydro-2,5-methanopyrido[3,4-f][1,4]oxazepine-9-carbonitrile], with 129 nM; and `N#Cc1cncc2c1O[C@H]1C[C@@H]2N(C(=O)C2(C#N)CCCC2)C1` [Compound 1-111, (2S,5S)-4-(1-cyanocyclopentane-1-carbonyl)-2,3,4,5-tetrahydro-2,5-methanopyrido[3,4-f][1,4]oxazepine-9-carbonitrile], with 184 nM. With `CC(C)(C(=O)N1C[C@@H]2C[C@H]1c1cncc(F)c1O2)C(F)F` [Compound 2-1, 3,3-Difluoro-1-((2S,5S)-9-fluoro-2,3-dihydro-2,5-methanopyrido[3,4-f][1,4]oxazepin-4(5H)-yl)-2,2-dimethylpropan-1-one] the figure was 184 nM.

Values taken from patent US20240228506A1, “RIPK1 INHIBITORS AND METHODS OF USE” (Merck Sharp & Dohme LLC, priority 2021, published 2024).
